Measurements as given in patent publication US11596611B2, “Hepatitis B antiviral agents” (ENANTA PHARMACEUTICALS, INC., priority 2017, dated 2023).

Tested on: HBV
Experiment: HepAD38 antiviral assay: reduction of viral product accumulation (virion DNA by qPCR, HBsAg or HBeAg by ELISA)
Assay type: cell-based, hepatitis B virus
Conditions: Hepatitis B virus, 120 h; HepAD38 cells, five days after compound addition; 50% reduction of viral product vs no drug controls; read-out: HepAD38 EC50
Method: Methods: HepAD38 cells are maintained as previously reported (Ladner et al, Antimicrob. Agents Chemother. 1997, […], 1715). Briefly, cells are passaged upon attaining confluency in DMEM/F12 media in the presence of 10% FBS, Penn/Strep, 250 μg/mL G418, and 1 ug/ml tetracycline. Novel compounds are screened by first washing cells three times with PBS to remove tetracycline, and plating in 96 well plates at 35,000 cells/well. Compounds dissolved in DMSO are then diluted 1:200 into wells containing cells. Five days after compound addition, material is harvested for analysis. For an extended 8 days analysis, cells are plated and treated as described above, but media and compound are refreshed on d2 and d5 post initial treatment.
On harvest day, virion DNA is obtained by lysing with Sidestep Lysis and Stabilization Buffer and then quantified via quantitative real time PCR. Commercially available ELISA kits are used to quantitate the viral proteins HBsAg (Alpco) or HbeAg (US Biological) by following the manufacturer's recommended protocol after diluting samples to match the linear range of their respective assays.

For `CC[C@H](O)[C@@H](O)[C@]1(O)C2CCC1C[C@@H](S(=O)(=O)c1cc(C(=O)Nc3ccc(F)c(F)c3)ccc1Cl)C2` [Example 334], the EC50 was under 104 nM.

For `O=C1N[C@@H](C(=O)NC[C@]2(O)C3CCC2C[C@@H](S(=O)(=O)c2cc(C(=O)Nc4cc(F)c(F)c(F)c4)ccc2Cl)C3)CO1` [Example 95], the EC50 was over 200 nM.

Work on `COC(=O)C[C@]1(O)C2CCC1C[C@@H](S(=O)(=O)c1cc(C(=O)Nc3cc(F)c(F)c(F)c3)ccc1Cl)C2` [Example 32] yielded an EC50 of over 200 nM.

With `O=C(Nc1ccc(F)c(F)c1)c1ccc(Cl)c(S(=O)(=O)CC2CCC(O)(CO)CC2)c1` (centres unmarked) [Example 194] the EC50 was 100 to 200 nM.

`O=C(O)CNC(=O)C[C@]1(O)C2CCC1C[C@@H](S(=O)(=O)c1cc(C(=O)Nc3cc(F)c(F)c(F)c3)ccc1Cl)C2` [Example 120] showed an EC50 of over 200 nM.

For `O=C(Nc1ccc(F)c(F)c1)c1ccc(Cl)c(S(=O)(=O)[C@@H]2CC3CC[C@@H](C2)[C@@]3(O)C(O)c2ncccc2C(F)F)c1` (some centres unmarked) [Example 349], the EC50 was 100 to 200 nM.

For `COC(=O)N1CCCC1C(=O)NC[C@@]1(O)C2CC[C@H]1C[C@H](S(=O)(=O)c1cc(C(=O)Nc3cc(F)c(F)c(F)c3)ccc1Cl)C2` (some centres unmarked) [Example 23], the EC50 was under 104 nM.

Compound `O=C(Nc1ccc(F)c(F)c1)c1ccc(Cl)c(S(=O)(=O)[C@H]2CC3CC[C@@H](C2)[C@@]3(O)C(O)Cn2ccnc2)c1` (some centres unmarked) [Example 311] has an EC50 of over 200 nM.

Compound `CC(C)(O)CC(=O)NC[C@]1(O)C2CCC1C[C@@H](S(=O)(=O)c1cc(C(=O)Nc3ccc(F)c(F)c3)ccc1Cl)C2` [Example 170] has an EC50 of under 104 nM.

`COC(=O)[C@H]1C[C@@H](S(=O)(=O)c2cc(C(=O)Nc3ccc(F)c(F)c3)ccc2Cl)C1` [Example 250b] showed an EC50 of over 200 nM.

Compound `CC(O)C(O)CNC(=O)C[C@]1(O)C2CCC1C[C@@H](S(=O)(=O)c1cc(C(=O)Nc3cc(F)c(F)c(F)c3)ccc1Cl)C2` (some centres unmarked) [Example 57] has an EC50 of 100 to 200 nM.

`COC(=O)N[C@H](C)C(=O)NC[C@]1(O)C2CCC1C[C@@H](S(=O)(=O)c1cc(C(=O)Nc3cc(F)c(F)c(F)c3)ccc1Cl)C2` [Example 86] showed an EC50 of under 104 nM.

Compound `C[C@]1(O)C2CCC1C[C@@H](S(=O)(=O)c1cc(C(=O)Nc3ccc(F)c(F)c3)c(-c3nccs3)cc1Cl)C2` [Example 157] has an EC50 of under 104 nM.

`COC[C@@H](C)NC(=O)C[C@]1(O)C2CCC1C[C@@H](S(=O)(=O)c1cc(C(=O)Nc3cc(F)c(F)c(F)c3)ccc1Cl)C2` [Example 115] showed an EC50 of under 104 nM.

Work on `C[C@H](O)COCC1(O)CC(S(=O)(=O)c2cc(C(=O)Nc3ccc(F)c(F)c3)ccc2Cl)C1` (some centres unmarked) [Example 230] yielded an EC50 of over 200 nM.

`O=C(Nc1cc(F)c(F)c(F)c1)c1ccc(Cl)c(S(=O)(=O)C2CC3CCC(C2)C3C(O)C(O)CO)c1` (centres unmarked) [Example 20] showed an EC50 of under 104 nM.

For `C=CCC1(O)CC(S(=O)(=O)c2cc(C(=O)Nc3ccc(F)c(F)c3)ccc2Cl)C1` (centres unmarked) [Example 239], the EC50 was over 200 nM.

`O=C(Nc1cc(F)c(F)c(F)c1)c1ccc(Cl)c(S(=O)(=O)[C@H]2CC3CCC(C2)[C@]3(O)CNC(=O)[C@@H]2CCCO2)c1` (single isomer, unassigned) [Example 14] showed an EC50 of under 104 nM.

In the case of `C[C@H](O)C(=O)O[C@@H](C)C(=O)NC[C@]1(O)C2CCC1C[C@@H](S(=O)(=O)c1cc(C(=O)Nc3cc(F)c(F)c(F)c3)ccc1Cl)C2` (single isomer, unassigned) [Example 106], the EC50 is reported as under 104 nM.

With `COC(=O)CNC(=O)[C@H]1C[C@H](S(=O)(=O)c2cc(C(=O)Nc3ccc(F)c(F)c3)ccc2Cl)C1` [Example 253a] the EC50 was over 200 nM.

Compound `O=C(C[C@]1(O)C2CCC1C[C@@H](S(=O)(=O)c1cc(C(=O)Nc3cc(F)c(F)c(F)c3)ccc1Cl)C2)NC1COC1` [Example 110] has an EC50 of under 104 nM.

For `O=C(Nc1cc(F)c(F)c(F)c1)c1ccc(Cl)c(S(=O)(=O)[C@H]2CC3CCC(C2)[C@]3(O)COC[C@H](O)C(O)CO)c1` (some centres unmarked) [Example 60], the EC50 was 100 to 200 nM.

`O=C(Nc1ccc(F)c(F)c1)c1ccc(Cl)c(S(=O)(=O)[C@H]2CC3CCC(C2)[C@]3(O)[C@@H](O)c2ccc(F)cn2)c1` (single isomer, unassigned) [Example 291a] was tested, and the EC50 was under 104 nM.

`C[C@@H](CO)NC(=O)CC1(O)CC(S(=O)(=O)c2cc(C(=O)Nc3ccc(F)c(F)c3)ccc2Cl)C1` (some centres unmarked) [Example 247] gave an EC50 of over 200 nM.

In the case of `CC(=O)C[C@]1(O)CC[C@@H](CS(=O)(=O)c2cc(C(=O)Nc3ccc(F)c(F)c3)ccc2Cl)CC1` [Example 223], the EC50 is reported as 100 to 200 nM.

`O=C(Nc1cc(F)c(F)c(F)c1)c1ccc(Cl)c(S(=O)(=O)[C@H]2CC3CCC(C2)[C@]3(O)CNC(=O)[C@H]2CCCO2)c1` [Example 15] was tested, and the EC50 was under 104 nM.

Work on `CC(O)[C@@]1(O)C2CC[C@H]1C[C@H](S(=O)(=O)c1cc(C(=O)Nc3cc(F)c(F)c(F)c3)ccc1Cl)C2` (mixture of isomers) [Example 210] yielded an EC50 of under 104 nM.

Compound `COC(=O)N1C[C@H](O)C[C@H]1C(=O)NCC(O)[C@]1(O)C2CCC1C[C@@H](S(=O)(=O)c1cc(C(=O)Nc3cc(F)c(F)c(F)c3)ccc1Cl)C2` (some centres unmarked) [Example 107] has an EC50 of over 200 nM.

Work on `CC(C)([C@H]1CC[C@H](O)CC1)S(=O)(=O)c1cc(C(=O)Nc2ccc(F)c(F)c2)ccc1Cl` [Example 236] yielded an EC50 of over 200 nM.

`O=C(Nc1cc(F)c(F)c(F)c1)c1ccc(Cl)c(S(=O)(=O)[C@@H]2CC3CC[C@@H](C2)[C@@]3(O)CNC(=O)C2CC=CC2)c1` [Example 22] was tested, and the EC50 was under 104 nM.

`COc1cc(NC(=O)c2ccc(Cl)c(S(=O)(=O)[C@H]3CC4CCC(C3)[C@@]4(C)O)c2)ccc1F` [Example 104] gave an EC50 of over 200 nM.

With `O=C(Nc1cc(F)c(F)c(F)c1)c1ccc(Cl)c(S(=O)(=O)[C@@H]2CC3CC[C@@H](C2)[C@@]3(O)CNC(=O)[C@@H]2C[C@@H](O)[C@@H](O)C2)c1` [Example 24] the EC50 was over 200 nM.

In the case of `C[C@]1(O)C2CCC1C[C@@H](S(=O)(=O)c1cccc(C(=O)Nc3cc(F)c(F)c(F)c3)c1)C2` [Example 37], the EC50 is reported as 100 to 200 nM.

Compound `C[C@]1(O)C2CCC1C[C@@H](S(=O)(=O)c1cc(C(=O)Nc3ccc(Cl)c(F)c3)ccc1Cl)C2` [Example 46] has an EC50 of over 200 nM.

Work on `COC(=O)NCCC(=O)N1C2CCC1CC(S(=O)(=O)c1cc(C(=O)Nc3cc(F)c(F)c(F)c3)ccc1Cl)C2` (centres unmarked) [Example 147] yielded an EC50 of under 104 nM.

`C[C@H](O)[C@H](O)[C@]1(O)C2CCC1C[C@@H](S(=O)(=O)c1cc(C(=O)Nc3ccc(F)c(F)c3)ccc1Cl)C2` (single isomer, unassigned) [Example 181] was tested, and the EC50 was under 104 nM.

For `O=C(Nc1ccc(F)c(F)c1)c1ccc(Cl)c(S(=O)(=O)[C@H]2CC3CCC(C2)[C@]3(O)CN2CCOC2=O)c1` [Example 306], the EC50 was under 104 nM.

`O=C(Nc1ccc(F)c(F)c1)c1ccc(Cl)c(S(=O)(=O)CC2CC(O)(C(O)CO)C2)c1` (centres unmarked) [Example 207] gave an EC50 of over 200 nM.

In the case of `O=C(Nc1ccc(F)c(F)c1)c1ccc(Cl)c(S(=O)(=O)[C@H]2CC3CCC(C2)[C@H]3O)c1` (single isomer, unassigned) [Example 206], the EC50 is reported as 100 to 200 nM.

For `Cn1cc(C(O)C(O)[C@]2(O)C3CCC2C[C@@H](S(=O)(=O)c2cc(C(=O)Nc4ccc(F)c(F)c4)ccc2Cl)C3)cn1` (some centres unmarked) [Example 322], the EC50 was under 104 nM.

With `O=C(Nc1cc(F)c(F)c(F)c1)c1ccc(Cl)c(S(=O)(=O)[C@H]2CC3CCC(C2)[C@]3(O)[C@H](O)[C@@H](O)CO)c1` [Example 42] the EC50 was under 104 nM.

`CN1C2CCC1CC(S(=O)(=O)c1cc(C(=O)Nc3cc(F)c(F)c(F)c3)ccc1Cl)C2` (centres unmarked) [Example 145] was tested, and the EC50 was over 200 nM.

`C[C@]1(O)C2CCC1C[C@@H](S(=O)(=O)c1cc(C(=O)Nc3ccncn3)ccc1Cl)C2` [Example 221] showed an EC50 of over 200 nM.

Work on `CS(=O)(=O)NCC(O)[C@]1(O)C2CCC1C[C@@H](S(=O)(=O)c1cc(C(=O)Nc3cc(F)c(F)c(F)c3)ccc1Cl)C2` (some centres unmarked) [Example 26] yielded an EC50 of under 104 nM.

`Cc1ccnc([C@@H](O)[C@@]2(O)C3CC[C@H]2C[C@H](S(=O)(=O)c2cc(C(=O)Nc4ccc(F)c(F)c4)ccc2Cl)C3)c1` [Example 296b] gave an EC50 of under 104 nM.

Compound `CC1(C)O[C@H]2[C@H](CO[C@@H]2C(=O)NC[C@@]2(O)C3CC[C@H]2C[C@H](S(=O)(=O)c2cc(C(=O)Nc4cc(F)c(F)c(F)c4)ccc2Cl)C3)O1` [Example 28] has an EC50 of under 104 nM.

`O=C1CC[C@H](C(=O)NC[C@@]2(O)C3CC[C@H]2C[C@H](S(=O)(=O)c2cc(C(=O)Nc4cc(F)c(F)c(F)c4)ccc2Cl)C3)N1` [Example 128] gave an EC50 of over 200 nM.

For `COCCOC[C@]1(O)C2CCC1C[C@@H](S(=O)(=O)c1cc(C(=O)Nc3cc(F)c(F)c(F)c3)ccc1Cl)C2` [Example 98], the EC50 was under 104 nM.

Compound `C[C@]1(O)C2CCC1C[C@@H](S(=O)(=O)c1cc(C(=O)Nc3ccc(F)c(F)c3)c(Br)cc1Cl)C2` [Example 100] has an EC50 of under 104 nM.

For `O=C(Nc1ccc(F)c(F)c1)c1ccc(Cl)c(S(=O)(=O)[C@@H]2CC3CC[C@@H](C2)[C@@]3(O)[C@H](O)c2cc(F)ccn2)c1` [Example 299], the EC50 was under 104 nM.

Work on `O=C(Nc1ccc(F)c(F)c1)c1ccc(Cl)c(S(=O)(=O)[C@H]2CC3CCC(C2)[C@]3(O)CNC(=O)C2CC(O)C2)c1` (some centres unmarked) [Example 171] yielded an EC50 of over 200 nM.

`COC(=O)CCNC(=O)[C@H]1C[C@@H](S(=O)(=O)c2cc(C(=O)Nc3ccc(F)c(F)c3)ccc2Cl)C1` [Example 257b] was tested, and the EC50 was over 200 nM.

For `O=C(Nc1ccc(F)c(F)c1)c1ccc(Cl)c(S(=O)(=O)C2CC(O)(CCO)C2)c1` (centres unmarked) [Example 240], the EC50 was over 200 nM.

For `CC(C)c1cc(NC(=O)c2ccc(Cl)c(S(=O)(=O)[C@H]3CC4CCC(C3)[C@@]4(C)O)c2)ccc1F` [Example 43], the EC50 was over 200 nM.

Compound `CC(=O)C[C@]1(O)CC[C@H](CS(=O)(=O)c2cc(C(=O)Nc3ccc(F)c(F)c3)ccc2Cl)CC1` [Example 222] has an EC50 of 100 to 200 nM.

`NC(=O)C[C@H](N)C(=O)NC[C@]1(O)C2CCC1C[C@@H](S(=O)(=O)c1cc(C(=O)Nc3cc(F)c(F)c(F)c3)ccc1Cl)C2` [Example 27] was tested, and the EC50 was over 200 nM.
